{"source": "paper PMC10305147", "about": "(Life, 2023)", "key": {"[1]": {"test_system": "normal cells", "conditions": "cited from earlier work; for effect on normal cells: cause death for various cancer cells"}, "[2]": {"conditions": "adjuvant chemotherapeutic agents; cited from earlier work"}, "[3]": {"test_system": "tumor cell lines", "conditions": "EGCG from green tea at 40–200 microM; cited from earlier work"}, "[4]": {"test_system": "293T normal cells", "conditions": "cited from earlier work"}, "[5]": {"test_system": "WI38 normal cells", "conditions": "EGCG from green tea at 40–200 microM; cited from earlier work"}, "[6]": {"test_system": "HuCC-T1 cancer cells", "conditions": "cited from earlier work"}, "[7]": {"test_system": "bronchial epithelial 16HBE normal cells", "conditions": "cited from earlier work"}, "[8]": {"target": "T1, Acetylcholinesterase (AChE) (Electrophorus electricus, UniProt O42275)", "T1 sequence (O42275 24-633)": "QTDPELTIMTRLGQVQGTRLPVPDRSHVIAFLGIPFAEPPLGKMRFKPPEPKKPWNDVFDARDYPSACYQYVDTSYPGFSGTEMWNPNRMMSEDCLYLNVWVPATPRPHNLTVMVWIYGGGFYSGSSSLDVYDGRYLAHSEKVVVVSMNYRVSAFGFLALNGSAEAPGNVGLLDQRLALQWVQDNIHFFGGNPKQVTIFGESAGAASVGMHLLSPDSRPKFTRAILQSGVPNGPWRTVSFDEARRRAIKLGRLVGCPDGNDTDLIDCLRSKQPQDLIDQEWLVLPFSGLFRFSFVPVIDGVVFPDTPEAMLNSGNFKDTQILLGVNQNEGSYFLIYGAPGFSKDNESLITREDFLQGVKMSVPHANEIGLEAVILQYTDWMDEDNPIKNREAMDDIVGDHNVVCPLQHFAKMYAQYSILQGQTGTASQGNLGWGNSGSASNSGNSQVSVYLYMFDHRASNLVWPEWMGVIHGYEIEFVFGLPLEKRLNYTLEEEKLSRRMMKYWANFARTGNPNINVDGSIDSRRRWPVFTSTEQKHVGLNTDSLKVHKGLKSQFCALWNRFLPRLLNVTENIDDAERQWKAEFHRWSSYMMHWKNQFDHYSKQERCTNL", "protocol": "(§1) AChE was used to carry out the inhibitory assay using Ellman’s method [23] with modifications. A 0.05 M phosphate buffer, pH 8.0, was used in this protocol. Additionally, 60 µL of the herbal extract was mixed with the same volume of 0.5 mM enzyme solution and 120 µL of phosphate buffer, and kept at 25 °C for 15 min in a flat-bottom 96-well plate. Agent 5, 5′-dithiobis-2-nitrobenzoic acid (DTNB, 30 µL of 0.003 M) and 40 µL of 0.002 M acetylthiocholine iodide (ATCI) were added into the mixture to start the reaction. The reaction was maintained at 25 °C for 10 min before the absorbance was measured at the wavelength of 415 nm. For the control group, 60 µL of phosphate buffer was used instead of 60 µL of the herbal extract solution and the same condition was used for the calculation of enzyme inhibition activity using the following equation:AChE inhibition (%) = (AC − AE)/AC × 100, where AE is the absorbance value measured at 415 nm of the reaction containing herbal extract and enzyme, while AC is the absorbance value at 415 nm of the reaction containing enzyme and phosphate buffer instead of the herbal extract. The samples and berberine chloride (commercial AChE inhibitor) were dissolved in dimethylsulfoxide and eluted at various concentrations using a 0.05 M phosphate buffer and then used for the tests."}, "[9]": {"target": "T1, Acetylcholinesterase (AChE)", "assay": "biochemical", "protocol": "as §1"}, "[10]": {"target": "T1, Acetylcholinesterase (AChE)", "assay": "AChE enzyme inhibition assay (Ellman's method, modified)", "conditions": "IC50, different parts of ELC extracted by MeOH (Table 2)", "protocol": "as §1"}}}
{"compound": "O=c1cc(-c2ccc(O)cc2)oc2cc(O)cc(O)c12", "note": "[Compd 21, apigenin]", "values": [{"measurement": "effects on normal cells", "setting": "[1]", "value": "no or low effects on normal cells"}]}
{"compound": "O=c1cc(-c2ccc(O)cc2)oc2cc(O[C@@H]3O[C@H](CO)[C@@H](O)[C@H](O)[C@H]3O)cc(O)c12", "note": "[Compd 18, apigetrin]", "values": [{"measurement": "toxicity and side effects via in vivo and clinical trials", "setting": "[2]", "value": "trivial toxicity and side effects"}]}
{"compound": "O=C(O[C@@H]1Cc2c(O)cc(O)cc2O[C@@H]1c1ccc(O)c(O)c1)c1cc(O)c(O)c(O)c1", "note": "[Compd 14, epicatechin gallate]", "values": [{"measurement": "effect on normal cells", "setting": "[1]", "value": "no effect on normal cells"}]}
{"compound": "O=c1c(O)c(-c2ccc(O)c(O)c2)oc2cc(O)cc(O)c12", "note": "[Compd 20, quercetin]", "values": [{"measurement": "effects on normal cells", "setting": "[1]", "value": "no or low effects on normal cells"}]}
{"compound": "C[C@@H]1O[C@@H](OC[C@H]2O[C@@H](Oc3c(-c4ccc(O)c(O)c4)oc4cc(O)cc(O)c4c3=O)[C@H](O)[C@@H](O)[C@@H]2O)[C@H](O)[C@H](O)[C@H]1O", "note": "[Compd 17, rutin]", "values": [{"measurement": "toxicity and side effects via in vivo and clinical trials", "setting": "[2]", "value": "trivial toxicity and side effects"}]}
{"compound": "O=C(O[C@@H]1Cc2c(O)cc(O)cc2O[C@@H]1c1cc(O)c(O)c(O)c1)c1cc(O)c(O)c(O)c1", "note": "[Compd 12, epigallocatechin gallate]", "values": [{"measurement": "death of tumor cell lines", "setting": "[3]", "value": "significant death"}, {"measurement": "viability of 293T normal cells", "setting": "[4]", "value": "safe"}, {"measurement": "WI38 normal cells growth affected", "setting": "[5]", "value": 1, "unit": "%"}, {"measurement": "toxicity on HuCC-T1 cancer cells", "setting": "[6]", "value": "toxic"}]}
{"compound": "Oc1cc(O)c2c(c1)O[C@H](c1ccc(O)c(O)c1)[C@H](O)C2", "note": "[Compd 13, epicatechin]", "values": [{"measurement": "effect on normal cells", "setting": "[1]", "value": "no effect on normal cells"}]}
{"compound": "O=c1c(O)c(-c2cc(O)c(O)c(O)c2)oc2cc(O)cc(O)c12", "note": "[Compd 19, myricetin]", "values": [{"measurement": "toxicity and side effects via in vivo and clinical trials", "setting": "[2]", "value": "trivial toxicity and side effects"}]}
{"compound": "O=c1cc(-c2ccc(O)cc2)oc2c([C@@H]3O[C@H](CO)[C@@H](O)[C@H](O)[C@H]3O)c(O)cc(O)c12", "note": "[Compd 15, vitexin]", "values": [{"measurement": "effect on bronchial epithelial 16HBE normal cells", "setting": "[7]", "value": "non-effect"}]}
{"compound": "COc1ccc2cc3[n+](cc2c1OC)CCc1cc2c(cc1-3)OCO2", "note": "[Berberine chloride, berberine chloride]", "values": [{"measurement": "inhibition", "setting": "[8]", "value": "98.2 ± 1.8", "unit": "%"}, {"measurement": "IC50", "setting": "[9]", "value": 934, "unit": "µM"}, {"measurement": "IC50", "setting": "[10]", "value": 972, "unit": "µM"}]}
